Measured values from ChEMBL document CHEMBL1133835, “A unique ring-expanded acyclic nucleoside analogue that inhibits both adenosine deaminase (ADA) and guanine deaminase (GDA; guanase): synthesis and enzyme inhibition studies of 4,6-diamino-8H-1-hydroxyethoxymethyl-8-iminoimidazo[4,5-e][1,3]diazepine” (Bioorg Med Chem Lett, 2001).

Target: T1, Adenosine deaminase (Bos taurus, UniProt P56658)
T1 sequence (P56658 whole entry): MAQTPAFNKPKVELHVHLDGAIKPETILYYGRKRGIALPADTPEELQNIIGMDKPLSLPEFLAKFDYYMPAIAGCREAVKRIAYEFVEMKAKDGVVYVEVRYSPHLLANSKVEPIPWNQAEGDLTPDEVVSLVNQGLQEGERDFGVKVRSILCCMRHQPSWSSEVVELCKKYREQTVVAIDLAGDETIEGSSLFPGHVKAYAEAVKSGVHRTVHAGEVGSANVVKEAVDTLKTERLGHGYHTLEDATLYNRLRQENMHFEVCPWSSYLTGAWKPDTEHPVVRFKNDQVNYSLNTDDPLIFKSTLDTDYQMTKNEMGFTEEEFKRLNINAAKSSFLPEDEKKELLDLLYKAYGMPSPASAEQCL
Assay: Binding affinity against Adenosine deaminase from calf intestinal mucosa was determined
Format: tissue-based

Ki: 10 nM
SMILES: CCCCCC[C@@H]([C@@H](C)O)n1cnc2c(N)ncnc21 [EHNA]
